Experimental data: patent publication US12310963B2, “Pyrazole derivatives and use thereof” (Tarapeutics Science Inc., priority 2019, dated 2025)

Experiments:
[1] = test system: pulmonary arterial hypertension (PAH); experiment: Rat model of pulmonary arterial hypertension (PAH), monocrotaline-induced; assay type: in vivo; conditions: for mPAP, difference as compared with the vehicle group: p<0.001
Description: SCXK (SU) 2017-0001. These rats were fed with conventional pellet feeds (Jiangsu Xietong Bio. Co., Ltd.), and were raised in a clean animal room with 12h/12h light/dark cycle. The rats were fed with foods and drinking water on an ad libitum basis. The temperature was maintained at 20-26° C., and the relative humidity was 40-70%. 120 SD rats were divided into 24 cages with 5 rats per group. […] The animals were treated in strict accordance with animal ethics regulations throughout the experiment. According to the method described in “Pharmaceutical experimental animal models: Fabrication and application” and the Standard Operating Procedure for PAH Model Construction of Model Animal Center, rats were intraperitoneally injected with a solution of 1% monocrotaline (MCT, purchased from Sigma, U.S.A.) once at a dose of 35 mg/kg. On Day 7 after the first injection of MCT, MCT was injected again at a dose of 20 mg/kg. The rats in the normal control group were intraperitoneally injected with an equivalent amount of water as a blank solvent. The specific steps were as follows: After the rats in each of the cages were fasted for 8 hours, each of the rats was weighed and recorded for the basic body weight after fasting; based on the measured basic body weight for each of the rats, the amount of MCT required to be injected for each of the rats was calculated according to the modeling dose of 35 mg/kg; based on the amount of MCT required to be injected for each of the rats, the dose for injection of a 1% MCT solution was calculated; the rats were fixed in a holder and intraperitoneally injected with the 1% MCT solution at the calculated dose; the rats were returned to the cages for routine feeding after the injection. […] The blood gas analyzer was operated following the standard operation procedure. […] Each of the rats was administered by gavage once a day starting from the day of regrouping at Week 4. The rats in the negative control group were daily administered by gavage with an equal volume of methylcellulose as vehicle. The rats in each of the groups were administered by gavage for consecutive 4 weeks (i.e., 28 days). […] The rats were weighed after fasting overnight twice a week. The administration dosage was calculated based on the weighing results. […] After the rats were under anesthesia, the pulmonary arterial pressure and the right ventricular systolic pressure of rats were measured. […] The steps were as follows. A No. 3.5 umbilical vein catheter was connected to a system pressure transducer. A formulated solution of […] sodium (purchased from Sangon) was filled into the transducer and the catheter, and bubbles were discharged. The anesthetized rat was placed on a surgical anatomical plate that is adjustable in its temperature. The temperature of the plate was adjusted to be maintained at about 37° C. The rat was fixed in supine position. The neck skin was cut with scissors to the edge of the clavicle, followed by blunt dissection of subcutaneous tissues and muscles, exposing the right external jugular vein. The adipose tissue on the surface was removed with ophthalmic surgical scissors. The external jugular vein was ligated at the […] surgical thread, and a loose knot was made at the proximal end for reserve. The external jugular vein was gently lifted with ophthalmic tweezers and cut with ophthalmic scissors to make a “V” opening. The catheter was quickly inserted, and the loose knot at the proximal end was tightened slightly to prevent bleeding. […] The catheter was further inserted slowly forward, and entered into the pulmonary artery at about 5 cm. […] The blood was transferred into an anticoagulation tube, and loaded in a blood gas analyzer to determine the indexes of partial pressure of oxygen (pO2), partial pressure of carbon dioxide (pCO2) and blood oxygen saturation (SaO2) in the blood.

[2] = test system: BaF3-P210-T315I (stably expressing ABL-T315I kinase); experiment: Growth of BaF3-P210-T315I cells, Cell Titer-Glo, 72 h; assay type: cell-based, mouse
Text: In this example, mouse primary B cell BaF3 (purchased from ATCC, U.S.A.) was used. In addition, in this example, mouse BaF3-tel-PDGFRα (stably expressing PDGFRα kinase), mouse BaF3-tel-PDGFRβ (stably expressing PDGFRβ kinase), BaF3-P210 (stably expressing ABL kinase), BaF3-P210-T315I (stably expressing ABL-T315I kinase), BaF3-FL-BRAF-V600E (stably expressing BRAF-V600E kinase), BaF3-TEL-cKIT (stably expressing cKIT kinase), BaF3-TEL-VEGFR2 (stably expressing VEGFR2 kinase), BaF3-TEL-FGFR2 (stably expressing FGFR2 kinase) were also used. The above-mentioned cell trains were all constructed in our laboratory by the method as follows. The sequences of human BCR-ABL (P210 or P210/T315I mutated), full-length BRAF-V600E, cKIT, VEGFR2, FGFR2, PDGFRα, PDGFRβ kinase region were amplified respectively via PCR, and inserted respectively into a MSCV-Puro vector (purchased from Clontech) having a N-terminal TEL fragment and/or NPM fragment and/or TPR fragment, and stably transferred into mouse BaF3 cells by the retroviral method, and the growth factor IL-3 was removed. Eventually, cell lines which are transferred into proteins depending on PDGFRα, PDGFRβ were obtained.
In this example, solutions of the test compound at different concentrations (0.000508 μM, 0.00152 μM, 0.00457 μM, 0.0137 μM, 0.0411 μM, 0.123 μM, 0.370 μM, 1.11 μM, 3.33 μM, 10 μM) were added to the above cells. […]

[3] = 45 mg/kg by gavage, 28 days, P<0.001
[4] = high-dose group (45 mg/kg), P<0.001
[5] = medium-dose group (30 mg/kg), P<0.01

GI50 ([2]; BaF3-P210-T315I cells, 72 hours): 5.16 µM
SMILES: Cc1ccc(NC(=O)c2cccc(C(F)(F)F)n2)cc1-n1cc(-c2cncc(N3CCN(C)CC3)c2)cn1 [Compound 1, N-(4-methyl-3-(4-(5-(4-methylpiperazin-1-yl)pyridin-3-yl)-1H-pyrazol-1-yl)phenyl)-6-(trifluoromethyl)picolinamide]
mPAP, difference as compared with the vehicle group ([1]; 15 mg/kg by gavage, 28 days): extremely significantly different
RVSP, difference as compared with the groups of imatinib and bosentan ([1]; 30 mg/kg by gavage, 28 days): no significant difference
mPAP, difference as compared with the groups of bosentan and imatinib ([1]; 30 mg/kg by gavage, 28 days): no significant difference
RVSP, difference as compared with the vehicle group ([1]; 30 mg/kg by gavage, 28 days, P<0.001): extremely significantly different
mPAP, difference as compared with the vehicle group ([1]; 30 mg/kg by gavage, 28 days): extremely significantly different
RVI, difference as compared with the groups of imatinib and bosentan ([1]; 45 mg/kg by gavage, 28 days): no significant difference
RVSP, difference as compared with the groups of imatinib and bosentan ([1]; 45 mg/kg by gavage, 28 days): no significant difference
mPAP, difference as compared with the groups of bosentan and imatinib ([1]; 45 mg/kg by gavage, 28 days): no significant difference
RVI, difference as compared with the vehicle group [1, 3]: extremely significantly different
RVSP, difference as compared with the vehicle group [1, 3]: extremely significantly different
mPAP, difference as compared with the vehicle group ([1]; 45 mg/kg by gavage, 28 days): extremely significantly different
partial pressure of carbon dioxide (pCO2), difference as compared with the vehicle group [1, 4]: extremely significantly different
partial pressure of oxygen (pO2), difference as compared with the vehicle group [1, 4]: extremely significantly different
blood oxygen saturation (SaO2), difference as compared with the vehicle group ([1]; high-dose group (45 mg/kg), p<0.05): significantly different
RVI decrease as compared with the negative control group ([1]; high-dose group, 45 mg/kg by gavage, 28 days): 29.6%
RVI decrease as compared with the negative control group ([1]; low-dose group, 15 mg/kg by gavage, 28 days): 5.5%
partial pressure of carbon dioxide (pCO2), difference as compared with the vehicle group [1, 5]: extremely significantly different
partial pressure of oxygen (pO2), difference as compared with the vehicle group [1, 5]: extremely significantly different
RVI decrease as compared with the negative control group ([1]; medium-dose group, 30 mg/kg by gavage, 28 days): 9.4%
inhibitory effect against ABL-T315I (in words) ([2]; summary of Table 2): no inhibitory effect, or a relatively weak inhibitory effect
